Data taken from US10544130B2, “Metallo-beta-lactamase inhibitors” (priority 2015, dated 2020).
Where a name gives a salt, the structure may show the parent alone.

These molecules were tested on Pseudomonas aeruginosa PAO1 MB9798 (efflux+, IMP-1). Details: fold difference between efflux + (MB9798) and efflux − (MB9799) strains; imipenem at 2 μg/mL.
Method in brief: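 Isogenic PAO1 pair (efflux+ MB9798, efflux− MB9799, both IMP-1) tested by microbroth MIC with fixed imipenem and/or ceftazidime, usually at CLSI breakpoint, plus fixed class A/C inhibitor against AmpC. MBL inhibitor titrated; concentration restoring susceptibility recorded and fold difference between strains taken as efflux extent.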

With `C[N+](C)(C)CCNS(=O)(=O)c1ccc(-c2cccc3sc(N)nc23)c(-c2nnn[nH]2)c1S(N)(=O)=O` [Example 391, 2-({[4-(2-amino-1,3-benzothiazol-4-yl)-2-sulfamoyl-3-(1H-tetrazol-5-yl)phenyl]sulfonyl}amino)-N,N,N-trimethylethanaminium trifluoroacetate] the Efflux ratio was 1.00.

Same assay, conditions: ratio MITC95 PA 9798/MITC95 PA 9799; imipenem at 2 μg/mL

`Cn1c(N)nc2c(-c3ccc(S(=O)(=O)NCCCN)c(S(N)(=O)=O)c3-c3nn[nH]n3)cccc21` [Example 183, 4-(2-amino-1-methyl-1H-benzo[d]imidazol-4-yl)-N^1-(3-aminopropyl)-3-(2H-tetrazol-5-yl)benzene-1,2-disulfonamide] and `NCCCNS(=O)(=O)c1ccc(-c2cccc3[nH]cnc23)c(-c2nn[nH]n2)c1S(N)(=O)=O` [Example 198, N^1-(3-aminopropyl)-4-(1H-benzo[d]imidazol-4-yl)-3-(2H-tetrazol-5-yl)benzene-1,2-disulfonamide] are the same in Efflux ratio: 1.00 for the first, 1.00 for the second.

`CNc1ccc(-c2ccc(S(=O)(=O)NCCN)c(S(N)(=O)=O)c2-c2nn[nH]n2)cn1` [Example 243, N^1-(2-aminoethyl)-4-(6-(methylamino)pyridin-3-yl)-3-(2H-tetrazol-5-yl)benzene-1,2-disulfonamide] and `NCCNS(=O)(=O)c1ccc(-c2cccc(-c3n[nH]c(N)n3)c2)c(-c2nn[nH]n2)c1S(N)(=O)=O` [Example 228, 3′-(5-amino-1H-1,2,4-triazol-3-yl)-N4-(2-aminoethyl)-2-(2H-tetrazol-5-yl)-[1,1′-biphenyl]-3,4-disulfonamide] are the same in Efflux ratio: 1.00 for the first, 1.00 for the second.

Compared with `C[C@@H](CN)NS(=O)(=O)c1ccc(-c2cccc3[nH]c(N)nc23)c(-c2nn[nH]n2)c1S(N)(=O)=O` [Example 186, 4-(2-amino-1H-benzo[d]imidazol-4-yl)-N^1—((S)-1-aminopropan-2-yl)-3-(2H-tetrazol-5-yl)benzene-1,2-disulfonamide], `C[C@@H](N)CNS(=O)(=O)c1ccc(-c2cccc3[nH]c(N)nc23)c(-c2nn[nH]n2)c1S(N)(=O)=O` [Example 185, 4-(2-amino-1H-benzo[d]imidazol-4-yl)-N1-((R)-2-aminopropyl)-3-(2H-tetrazol-5-yl)benzene-1,2-disulfonamide] is lower in Efflux ratio: 2.00 for the first, 0.65 for the second.

First: Nc1nc2c(-c3ccc(S(=O)(=O)NCC4CNCCO4)c(S(N)(=O)=O)c3-c3nnn[nH]3)cccc2s1.O=C(O)C(F)(F)F (centres unmarked) [Example 112, 2-((4-(2-aminobenzo[d]thiazol-4-yl)-2-sulfamoyl-3-(1H-tetrazol-5-yl)phenylsulfonamido)methyl)morpholin-4-ium 2,2,2-trifluoroacetate]
Second: NCC1CN(S(=O)(=O)c2ccc(-c3cccc4sc(N)nc34)c(-c3nnn[nH]3)c2S(N)(=O)=O)CCO1.O=C(O)C(F)(F)F (centres unmarked) [Example 104, (4-((4-(2-aminobenzo[d]thiazol-4-yl)-2-sulfamoyl-3-(1H-tetrazol-5-yl)phenyl)sulfonyl)morpholin-2-yl) methanaminium 2,2,2-trifluoroacetate]
The Efflux ratio of the first is lower: 1.00 for the first, 2.00 for the second.

First: Nc1nc2c(-c3ccc(S(=O)(=O)NCC4(F)CNC4)c(S(N)(=O)=O)c3-c3nnn[nH]3)cccc2s1 [Example 46, 4-(2-amino-1,3-benzothiazol-4-yl)-N^1-[(3-fluoroazetidin-3-yl)methyl]-3-(1H-tetrazol-5-yl)benzene-1,2-disulfonamide]
Second: Nc1nc2c(-c3ccc(S(=O)(=O)NCC4(F)CNC4)c(S(N)(=O)=O)c3-c3nnn[nH]3)cccc2s1.O=CO [Example 91, 3-(((4-(2-aminobenzo[d]thiazol-4-yl)-2-sulfamoyl-3-(1H-tetrazol-5-yl)phenyl)sulfonamido)methyl)-3-fluoroazetidin-1-ium formate]
The Efflux ratio of the first is lower: 0.50 for the first, 1.00 for the second.

`Nc1nc2c(-c3ccc(S(=O)(=O)N[C@H]4CN[C@@H](CO)C4)c(S(N)(=O)=O)c3-c3nnn[nH]3)cccc2s1` [Example 81, 4-(2-amino-1,3-benzothiazol-4-yl)-N1-[(3R,5R)-5-(hydroxymethyl)pyrrolidin-3-yl]-3-(1H-tetrazol-5-yl)benzene-1,2-disulfonamide] and `NC[C@@H](CO)NS(=O)(=O)c1ccc(-c2cccc3sc(N)nc23)c(-c2nnn[nH]2)c1S(N)(=O)=O` [Example 201, (S)—N^1-(1-amino-3-hydroxypropan-2-yl)-4-(2-aminobenzo[d]thiazol-4-yl)-3-(1H-tetrazol-5-yl)benzene-1,2-disulfonamide] are the same in Efflux ratio: 0.50 for the first, 0.50 for the second.

First: Nc1nc2c(-c3ccc(S(=O)(=O)N4CCNC(=O)C4)c(S(N)(=O)=O)c3-c3nnn[nH]3)cccc2s1 [Example 28, 3-(2-amino-1,3-benzothiazol-4-yl)-6-[(3-oxopiperazin-1-yl)sulfonyl]-2-(1H-tetrazol-5-yl)benzenesulfonamide]
Second: NC[C@@H]1CCN(S(=O)(=O)c2ccc(-c3cccc4sc(N)nc34)c(-c3nnn[nH]3)c2S(N)(=O)=O)C1.O=C(O)C(F)(F)F [Example 94, (S)-(1-((4-(2-aminobenzo[d]thiazol-4-yl)-2-sulfamoyl-3-(1H-tetrazol-5-yl)phenyl)sulfonyl)pyrrolidin-3-yl)methanaminium 2,2,2-trifluoroacetate]
The Efflux ratio of the first is higher: 4.00 for the first, 1.00 for the second.

Going from `Nc1nc2c(-c3ccc(S(=O)(=O)N[C@H]4CNC[C@@H]4O)c(S(N)(=O)=O)c3-c3nnn[nH]3)cccc2[nH]1` [Example 169, 4-(2-amino-1H-benzo[d]imidazol-4-yl)-N^1-((3S,4S)-4-hydroxypyrrolidin-3-yl)-3-(1H-tetrazol-5-yl)benzene-1,2-disulfonamide] to `Nc1nc2c(-c3ccc(S(=O)(=O)N[C@H]4CNC[C@H]4O)c(S(N)(=O)=O)c3-c3nnn[nH]3)cccc2[nH]1` [Example 168, 4-(2-amino-1H-benzo[d]imidazol-4-yl)-N^1-((3S,4R)-4-hydroxypyrrolidin-3-yl)-3-(1H-tetrazol-5-yl)benzene-1,2-disulfonamide], the Efflux ratio falls from 1.00 to 0.70.

Compared with `Nc1nc2c(-c3ccc(S(=O)(=O)NC4(CO)CCNC4)c(S(N)(=O)=O)c3-c3nnn[nH]3)cccc2s1` (centres unmarked) [Example 84, 4-(2-amino-1,3-benzothiazol-4-yl)-N1-[3-(hydroxymethyl)pyrrolidin-3-yl]-3-(1H-tetrazol-5-yl)benzene-1,2-disulfonamide], `CN1CC[C@H](CNS(=O)(=O)c2ccc(-c3cccc4sc(N)nc34)c(-c3nnn[nH]3)c2S(N)(=O)=O)C1` [Example 77, 4-(2-amino-1,3-benzothiazol-4-yl)-N1-{[(3S)-1-methylpyrrolidin-3-yl]methyl}-3-(1H-tetrazol-5-yl)benzene-1,2-disulfonamide] is lower in Efflux ratio: 1.00 for the first, 0.50 for the second.

First: NS(=O)(=O)c1c(S(=O)(=O)N[C@@H]2CCNC2)ccc(-c2cccc(-c3nc[nH]n3)c2)c1-c1nn[nH]n1 [Example 225, (R)-N4-(pyrrolidin-3-yl)-2-(2H-tetrazol-5-yl)-3′-(1H-1,2,4-triazol-3-yl)-[1,1′-biphenyl]-3,4-disulfonamide]
Second: NS(=O)(=O)c1c(S(=O)(=O)N[C@@H]2CCNC2)ccc(-c2cccc3nonc23)c1-c1nn[nH]n1 [Example 238, (R)-4-(benzo[c][1,2,5]oxadiazol-4-yl)-N^1-(pyrrolidin-3-yl)-3-(2H-tetrazol-5-yl)benzene-1,2-disulfonamide]
The Efflux ratio of the first is lower: 1.00 for the first, 4.00 for the second.

`CS(=O)(=O)Nc1nc2c(-c3ccc(S(=O)(=O)N4CCNCC4)c(S(N)(=O)=O)c3-c3nn[nH]n3)cccc2s1` [Example 156, 3-(2-(Methylsulfonamido)benzo[d]thiazol-4-yl)-6-(piperazin-1-ylsulfonyl)-2-(2H-tetrazol-5-yl)benzenesulfonamide] and `CN1CCC(N(C)S(=O)(=O)c2ccc(-c3cccc4sc(N)nc34)c(-c3nnn[nH]3)c2S(N)(=O)=O)C1` (centres unmarked) [Example 54, 4-(2-amino-1,3-benzothiazol-4-yl)-N1-methyl-N^1-(1-methylpyrrolidin-3-yl)-3-(1H-tetrazol-5-yl)benzene-1,2-disulfonamide] are the same in Efflux ratio: 2.00 for the first, 2.00 for the second.

Going from `CC(CN)NS(=O)(=O)c1ccc(-c2cccc3sc(N)nc23)c(-c2nnn[nH]2)c1S(N)(=O)=O.O=CO` (centres unmarked) [Example 116, 2-(4-(2-aminobenzo[d]thiazol-4-yl)-2-sulfamoyl-3-(1H-tetrazol-5-yl)phenylsulfonamido) propan-1-aminium formate] to `Cn1cnc(CNS(=O)(=O)c2ccc(-c3cccc4sc(N)nc34)c(-c3nnn[nH]3)c2S(N)(=O)=O)n1` [Example 20, 4-(2-amino-1,3-benzothiazol-4-yl)-N^1-[(1-methyl-1H-1,2,4-triazol-3-yl)methyl]-3-(1H-tetrazol-5-yl)benzene-1,2-disulfonamide], the Efflux ratio rises from 0.50 to 1.00.

Going from `CO[C@H]1CNC[C@@H]1NS(=O)(=O)c1ccc(-c2cccc3sc(N)nc23)c(-c2nnn[nH]2)c1S(N)(=O)=O.O=C(O)C(F)(F)F` [Example 108, (3S,4S)-3-(4-(2-aminobenzo[d]thiazol-4-yl)-2-sulfamoyl-3-(1H-tetrazol-5-yl)phenylsulfonamido)-4-methoxypyrrolidin-1-ium 2,2,2-trifluoroacetate] to `Nc1nc2c(-c3ccc(S(=O)(=O)N[C@@H]4CNC[C@H]4O)c(S(N)(=O)=O)c3-c3nnn[nH]3)cccc2[nH]1` [Example 171, 4-(2-amino-1H-benzo[d]imidazol-4-yl)-N^1-((3R,4R)-4-hydroxypyrrolidin-3-yl)-3-(1H-tetrazol-5-yl)benzene-1,2-disulfonamide], the Efflux ratio falls from 1.00 to 0.50.

`C[C@H](CN)NS(=O)(=O)c1ccc(-c2cccnc2N)c(-c2nn[nH]n2)c1S(N)(=O)=O` [Example 212, (R)-N1-(1-aminopropan-2-yl)-4-(2-aminopyridin-3-yl)-3-(2H-tetrazol-5-yl)benzene-1,2-disulfonamide] and `C[N+]1(C)CC[C@H](NS(=O)(=O)c2ccc(-c3cccc4[nH]c(N)nc34)c(-c3nn[n-]n3)c2S(N)(=O)=O)C1` [Example 166, (S)-5-(6-(2-amino-1H-benzo[d]imidazol-4-yl)-3-(N-(1,1-dimethylpyrrolidin-1-ium-3-yl)sulfamoyl)-2-sulfamoylphenyl)tetrazol-2-ide] are the same in Efflux ratio: 1.00 for the first, 1.00 for the second.
